Measurements from US20240226072A1 (Stichting Het Nederlands Kanker Instituut, priority 2022, published 2024).
Read-outs that look alike come from different tables or passages of the source.

Assay: Plasma pharmacokinetics and tissue distribution 2 h after oral cabazitaxel 10 mg/kg with vehicle or 25 mg/kg ritonavir in wild-type, Oatp1a/1b−/−, Oatp1a/1b/2b1−/−, OATP1B1- and OATP1B3-transgenic mice
Type: in vivo
Settings: for CLiver / Cbrain / Pbrain, brain accumulation per h / SIC (% of dose), small intestinal content / Kp at 2 h: 2 h; for enhancement of AUC0-2h by ritonavir: ritonavir 25 mg/kg compared to respective vehicle group; for AUC(0-t) / Kp at 2 h / Cmax / Tmax: male, FVB, mouse; for AUC(0-t) / Cmax / Tmax: plasma; for AUC(0-t): read-out: AUC0-2 h
Description: All animals were fasted 2 to 3 hours prior to the start of the experiment to minimize variation in absorption after oral administration. […] Subsequently, cardiac puncture was performed with a heparinized needle and syringe collecting a final blood sample. […] All samples were stored at −30° C. until analysis.
Differences were considered statistically significant when P<0.05. All data are presented as geometric mean±SD.

[1] = OATP1B1-transgenic mice, ritonavir 25 mg/kg oral, cabazitaxel 10 mg/kg oral
[2] = OATP1B1-transgenic mice, vehicle, cabazitaxel 10 mg/kg oral
[3] = OATP1B3-transgenic mice, ritonavir 25 mg/kg oral, cabazitaxel 10 mg/kg oral
[4] = OATP1B3-transgenic mice, vehicle, cabazitaxel 10 mg/kg oral
[5] = Oatp1a/1b/2b1−/− mice, ritonavir 25 mg/kg oral, cabazitaxel 10 mg/kg oral
[6] = Oatp1a/1b/2b1−/− mice, vehicle, cabazitaxel 10 mg/kg oral
[7] = Oatp1a/1b−/− mice, ritonavir 25 mg/kg oral, cabazitaxel 10 mg/kg oral
[8] = Oatp1a/1b−/− mice, vehicle, cabazitaxel 10 mg/kg oral
[9] = po, 10 mg/kg, OATP1B1-transgenic mice, ritonavir 25 mg/kg oral, cabazitaxel 10 mg/kg oral
[10] = po, 10 mg/kg, OATP1B1-transgenic mice, vehicle pretreatment, oral 10 mg/kg cabazitaxel
[11] = po, 10 mg/kg, OATP1B1-transgenic mice, vehicle, cabazitaxel 10 mg/kg oral

CO[C@H]1C(=O)[C@]2(C)[C@@H](OC)C[C@H]3OC[C@@]3(OC(C)=O)[C@H]2[C@H](OC(=O)c2ccccc2)[C@]2(O)C[C@H](OC(=O)[C@H](O)[C@@H](NC(=O)OC(C)(C)C)c3ccccc3)C(C)=C1C2(C)C [cabazitaxel]
CLiver [1]: 22966 pmol/g
Cbrain [1]: 275 pmol/g
Pbrain, brain accumulation per h [1]: 0.031 h⁻¹
SIC (% of dose), small intestinal content [1]: 1.93 % of dose
CLiver [2]: 3150 pmol/g
Cbrain [2]: 59.0 pmol/g
Pbrain, brain accumulation per h [2]: 0.014 h⁻¹
SIC (% of dose), small intestinal content [2]: 1.43 % of dose
CLiver [3]: 21217 pmol/g
Cbrain [3]: 245 pmol/g
Pbrain, brain accumulation per h [3]: 0.032 h⁻¹
SIC (% of dose), small intestinal content [3]: 1.06 % of dose
CLiver [4]: 2777 pmol/g
Cbrain [4]: 55.8 pmol/g
Pbrain, brain accumulation per h [4]: 0.014 h⁻¹
SIC (% of dose), small intestinal content [4]: 1.00 % of dose
enhancement of AUC0-2h by ritonavir (Oatp1a/1b/2b1−/− mice): 2.4 fold
CLiver [5]: 21464 pmol/g
Cbrain [5]: 262 pmol/g
Pbrain, brain accumulation per h [5]: 0.029 h⁻¹
SIC (% of dose), small intestinal content [5]: 1.67 % of dose
CLiver [6]: 2979 pmol/g
Cbrain [6]: 49.4 pmol/g
Pbrain, brain accumulation per h [6]: 0.013 h⁻¹
SIC (% of dose), small intestinal content [6]: 2.22 % of dose
enhancement of AUC0-2h by ritonavir (Oatp1a/1b−/− mice): 3.0 fold
CLiver [7]: 20747 pmol/g
Cbrain [7]: 323 pmol/g
Pbrain, brain accumulation per h [7]: 0.035 h⁻¹
SIC (% of dose), small intestinal content [7]: 0.91 % of dose
CLiver [8]: 2758 pmol/g
Cbrain [8]: 45.2 pmol/g
Pbrain, brain accumulation per h [8]: 0.014 h⁻¹
SIC (% of dose), small intestinal content [8]: 0.32 % of dose
AUC(0-t) (OATP1B1-transgenic (Oatp1a/1b−/− background), po, 10 mg/kg, OATP1B1-transgenic mice, ritonavir 25 mg/kg oral, cabazitaxel 10 mg/kg oral): 7.91 µM·h
AUC(0-t) (OATP1B1-transgenic (Oatp1a/1b−/− background), po, 10 mg/kg, OATP1B1-transgenic mice, vehicle, cabazitaxel 10 mg/kg oral): 3.7 µM·h
AUC(0-t) (OATP1B3-transgenic (Oatp1a/1b−/− background), po, 10 mg/kg, OATP1B3-transgenic mice, ritonavir 25 mg/kg oral, cabazitaxel 10 mg/kg oral): 6.57 µM·h
AUC(0-t) (OATP1B3-transgenic (Oatp1a/1b−/− background), po, 10 mg/kg, OATP1B3-transgenic mice, vehicle, cabazitaxel 10 mg/kg oral): 3.51 µM·h
AUC(0-t) (Oatp1a/1b/2b1−/−, po, 10 mg/kg, Oatp1a/1b/2b1−/− mice, ritonavir 25 mg/kg oral, cabazitaxel 10 mg/kg oral): 6.8 µM·h
AUC(0-t) (Oatp1a/1b/2b1−/−, po, 10 mg/kg, Oatp1a/1b/2b1−/− mice, vehicle, cabazitaxel 10 mg/kg oral): 2.88 µM·h
AUC(0-t) (Oatp1a/1b−/−, po, 10 mg/kg, Oatp1a/1b−/− mice, ritonavir 25 mg/kg oral, cabazitaxel 10 mg/kg oral): 7.89 µM·h
AUC(0-t) (Oatp1a/1b−/−, po, 10 mg/kg, Oatp1a/1b−/− mice, vehicle, cabazitaxel 10 mg/kg oral): 2.62 µM·h
Kp at 2 h (brain/plasma, po, 10 mg/kg, OATP1B1-transgenic mice, vehicle, cabazitaxel 10 mg/kg oral, read-out: Brain-to-plasma ratio): 0.054
Kp at 2 h (brain/plasma, po, 10 mg/kg, OATP1B3-transgenic mice, vehicle, cabazitaxel 10 mg/kg oral, read-out: Brain-to-plasma ratio): 0.067
Kp at 2 h (brain/plasma, po, 10 mg/kg, Oatp1a/1b/2b1−/− mice, vehicle, cabazitaxel 10 mg/kg oral, read-out: Brain-to-plasma ratio): 0.064
Kp at 2 h (brain/plasma, po, 10 mg/kg, Oatp1a/1b−/− mice, vehicle, cabazitaxel 10 mg/kg oral, read-out: Brain-to-plasma ratio): 0.064
Kp at 2 h (brain/plasma, po, 10 mg/kg, wild-type mice, vehicle, cabazitaxel 10 mg/kg oral, read-out: Brain-to-plasma ratio): 0.069
Kp at 2 h (brain/plasma, po, OATP1B1-transgenic mice, ritonavir 25 mg/kg oral, cabazitaxel 10 mg/kg oral, read-out: Brain-to-plasma ratio): 0.045
Kp at 2 h (brain/plasma, po, OATP1B3-transgenic mice, ritonavir 25 mg/kg oral, cabazitaxel 10 mg/kg oral, read-out: Brain-to-plasma ratio): 0.046
Kp at 2 h (brain/plasma, po, Oatp1a/1b/2b1−/− mice, ritonavir 25 mg/kg oral, cabazitaxel 10 mg/kg oral, read-out: Brain-to-plasma ratio): 0.047
Kp at 2 h (brain/plasma, po, Oatp1a/1b−/− mice, ritonavir 25 mg/kg oral, cabazitaxel 10 mg/kg oral, read-out: Brain-to-plasma ratio): 0.055
Kp at 2 h (brain/plasma, po, wild-type mice, ritonavir 25 mg/kg oral, cabazitaxel 10 mg/kg oral, read-out: Brain-to-plasma ratio): 0.036
Kp at 2 h (liver, oral, 10 mg/kg, OATP1B1-transgenic mice, vehicle, cabazitaxel 10 mg/kg oral, read-out: Liver-to-plasma ratio): 3.1
Kp at 2 h (liver, oral, 10 mg/kg, OATP1B3-transgenic mice, vehicle, cabazitaxel 10 mg/kg oral, read-out: Liver-to-plasma ratio): 3.61
Kp at 2 h (liver, oral, 10 mg/kg, Oatp1a/1b/2b1−/− mice, vehicle, cabazitaxel 10 mg/kg oral, read-out: Liver-to-plasma ratio): 3.84
Kp at 2 h (liver, oral, 10 mg/kg, Oatp1a/1b−/− mice, vehicle, cabazitaxel 10 mg/kg oral, read-out: Liver-to-plasma ratio): 3.95
Kp at 2 h (liver, oral, 10 mg/kg, wild-type mice, vehicle, cabazitaxel 10 mg/kg oral, read-out: Liver-to-plasma ratio): 3.93
Kp at 2 h (liver, oral, OATP1B1-transgenic mice, ritonavir 25 mg/kg oral, cabazitaxel 10 mg/kg oral, read-out: Liver-to-plasma ratio): 3.84
Kp at 2 h (liver, oral, OATP1B3-transgenic mice, ritonavir 25 mg/kg oral, cabazitaxel 10 mg/kg oral, read-out: Liver-to-plasma ratio): 4.15
Kp at 2 h (liver, oral, Oatp1a/1b/2b1−/− mice, ritonavir 25 mg/kg oral, cabazitaxel 10 mg/kg oral, read-out: Liver-to-plasma ratio): 3.95
Kp at 2 h (liver, oral, Oatp1a/1b−/− mice, ritonavir 25 mg/kg oral, cabazitaxel 10 mg/kg oral, read-out: Liver-to-plasma ratio): 3.62
Kp at 2 h (liver, oral, wild-type mice, ritonavir 25 mg/kg oral, cabazitaxel 10 mg/kg oral, read-out: Liver-to-plasma ratio): 3.32
Cmax [9]: 4.67 µM
Tmax [9]: 65 min
Cmax [10]: 2.73 ± 0.855 µM
Tmax [10]: 27.5 min
AUC(0-t) (po, 10 mg/kg, OATP1B1-transgenic mice, vehicle pretreatment, oral 10 mg/kg cabazitaxel, 0-2 h): 3.7 ± 1.23 µM·h
Cmax [11]: 2.73 µM
Tmax [11]: 27.5 min
Cmax (po, 10 mg/kg, OATP1B3-transgenic mice, ritonavir 25 mg/kg oral, cabazitaxel 10 mg/kg oral): 3.86 µM
